Results as given in ChEMBL document CHEMBL4613309, “Identification of 2-(4-(Phenylsulfonyl)piperazine-1-yl)pyrimidine Analogues as Novel Inhibitors of Chikungunya Virus” (ACS Med Chem Lett, 2020).

Assays:
in vitro = conditions: chlorocebus sabaeus, Vero cells
Chikungunya virus = experiment: microbe, parasite or virus in culture

## CCNc1nc(C)cc(N2CCN(C(=O)c3ccc(Cl)cc3)CC2)n1
In vitro
  CC50 at 120 h: 202 µM
Chikungunya virus
  EC50: 32 µM
  EC90: 108 µM
